The values below come from patent US10231954B2, “Neurodegenerative therapies” (LYTIX BIOPHARMA AS, priority 2014, dated 2019).

Read-outs that look alike come from different tables or passages of the source.

Format in all cases: biochemical
One assay deals with CDK2-Cyclin A (Homo sapiens, UniProt P24941). Description: Kinase profiling CDK2-Cyclin A. As to conditions: for remaining activity at 100 µM: read-out: residual kinase activity, CDK2-Cyclin A. The text has this: (§1) Any value less that 25 is considered to be highly significant inhibition.
The target of the next assay is MST3 (Homo sapiens, UniProt Q9Y6E0). Description: Kinase profiling MST3. To be noted: for remaining activity at 100 µM: read-out: residual kinase activity, MST3.
Text: as §1

The next assay has as its target WNK1 (Homo sapiens, UniProt Q9H4A3). Kind of assay: Kinase profiling WNK1. To be noted: for remaining activity at 100 µM: read-out: residual kinase activity, WNK1.
Text: as §1

Another assay addresses T1, NUAK1 (Homo sapiens, UniProt O60285).
T1 sequence (O60285 1-661): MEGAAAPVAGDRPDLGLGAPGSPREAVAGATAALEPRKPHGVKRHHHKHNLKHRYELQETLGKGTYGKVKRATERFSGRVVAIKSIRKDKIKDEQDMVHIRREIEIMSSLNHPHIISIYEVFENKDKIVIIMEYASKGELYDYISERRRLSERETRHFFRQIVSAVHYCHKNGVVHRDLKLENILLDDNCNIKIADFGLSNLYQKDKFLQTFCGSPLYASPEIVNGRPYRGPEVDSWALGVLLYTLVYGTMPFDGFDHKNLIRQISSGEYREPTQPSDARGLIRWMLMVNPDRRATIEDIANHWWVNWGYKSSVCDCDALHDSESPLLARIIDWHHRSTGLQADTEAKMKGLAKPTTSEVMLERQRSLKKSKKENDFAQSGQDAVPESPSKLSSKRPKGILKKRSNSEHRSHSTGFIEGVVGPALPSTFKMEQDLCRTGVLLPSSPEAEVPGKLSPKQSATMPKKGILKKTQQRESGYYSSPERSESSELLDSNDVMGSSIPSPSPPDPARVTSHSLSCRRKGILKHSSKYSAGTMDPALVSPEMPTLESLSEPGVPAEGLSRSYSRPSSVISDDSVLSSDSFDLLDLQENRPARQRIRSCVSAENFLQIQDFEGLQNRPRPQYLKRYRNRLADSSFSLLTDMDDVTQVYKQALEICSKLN
Description: Kinase profiling NUAK1. To be noted: for remaining activity at 100 µM: read-out: residual kinase activity, NUAK1.
Text: as §1

The target of the next assay is BRK (Homo sapiens, UniProt Q13882). Kind of assay: Kinase profiling BRK. As to conditions: for remaining activity at 100 µM: read-out: residual kinase activity, BRK.
Text: as §1

The next assay addresses T2, IKKb (Homo sapiens, UniProt O14920).
T2 sequence (O14920 1-756): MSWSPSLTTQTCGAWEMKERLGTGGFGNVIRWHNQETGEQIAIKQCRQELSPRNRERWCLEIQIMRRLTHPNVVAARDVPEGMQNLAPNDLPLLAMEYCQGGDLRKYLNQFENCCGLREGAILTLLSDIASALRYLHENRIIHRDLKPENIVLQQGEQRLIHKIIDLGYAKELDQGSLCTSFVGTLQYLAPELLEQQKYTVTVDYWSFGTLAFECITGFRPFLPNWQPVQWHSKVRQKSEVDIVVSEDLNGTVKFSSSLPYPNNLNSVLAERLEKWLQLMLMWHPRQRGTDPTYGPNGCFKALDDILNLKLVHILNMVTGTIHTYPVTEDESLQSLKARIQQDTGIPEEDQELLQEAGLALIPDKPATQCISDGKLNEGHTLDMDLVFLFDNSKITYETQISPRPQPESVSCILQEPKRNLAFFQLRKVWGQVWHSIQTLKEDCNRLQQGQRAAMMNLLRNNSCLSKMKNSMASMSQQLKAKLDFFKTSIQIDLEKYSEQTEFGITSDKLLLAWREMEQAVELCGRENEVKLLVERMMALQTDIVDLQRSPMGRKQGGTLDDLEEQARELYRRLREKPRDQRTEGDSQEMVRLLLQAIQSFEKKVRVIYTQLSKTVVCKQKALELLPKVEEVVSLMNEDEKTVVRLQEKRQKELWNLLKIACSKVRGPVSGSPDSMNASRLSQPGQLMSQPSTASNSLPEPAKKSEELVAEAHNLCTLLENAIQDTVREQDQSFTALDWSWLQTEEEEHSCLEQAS
Kind of assay: Kinase profiling IKKb. To be noted: for remaining activity at 100 µM: read-out: residual kinase activity, IKKb.
Text: as §1

The next assay has as its target T3, ULK2 (Homo sapiens, UniProt Q8IYT8).
T3 sequence (Q8IYT8 1-1036): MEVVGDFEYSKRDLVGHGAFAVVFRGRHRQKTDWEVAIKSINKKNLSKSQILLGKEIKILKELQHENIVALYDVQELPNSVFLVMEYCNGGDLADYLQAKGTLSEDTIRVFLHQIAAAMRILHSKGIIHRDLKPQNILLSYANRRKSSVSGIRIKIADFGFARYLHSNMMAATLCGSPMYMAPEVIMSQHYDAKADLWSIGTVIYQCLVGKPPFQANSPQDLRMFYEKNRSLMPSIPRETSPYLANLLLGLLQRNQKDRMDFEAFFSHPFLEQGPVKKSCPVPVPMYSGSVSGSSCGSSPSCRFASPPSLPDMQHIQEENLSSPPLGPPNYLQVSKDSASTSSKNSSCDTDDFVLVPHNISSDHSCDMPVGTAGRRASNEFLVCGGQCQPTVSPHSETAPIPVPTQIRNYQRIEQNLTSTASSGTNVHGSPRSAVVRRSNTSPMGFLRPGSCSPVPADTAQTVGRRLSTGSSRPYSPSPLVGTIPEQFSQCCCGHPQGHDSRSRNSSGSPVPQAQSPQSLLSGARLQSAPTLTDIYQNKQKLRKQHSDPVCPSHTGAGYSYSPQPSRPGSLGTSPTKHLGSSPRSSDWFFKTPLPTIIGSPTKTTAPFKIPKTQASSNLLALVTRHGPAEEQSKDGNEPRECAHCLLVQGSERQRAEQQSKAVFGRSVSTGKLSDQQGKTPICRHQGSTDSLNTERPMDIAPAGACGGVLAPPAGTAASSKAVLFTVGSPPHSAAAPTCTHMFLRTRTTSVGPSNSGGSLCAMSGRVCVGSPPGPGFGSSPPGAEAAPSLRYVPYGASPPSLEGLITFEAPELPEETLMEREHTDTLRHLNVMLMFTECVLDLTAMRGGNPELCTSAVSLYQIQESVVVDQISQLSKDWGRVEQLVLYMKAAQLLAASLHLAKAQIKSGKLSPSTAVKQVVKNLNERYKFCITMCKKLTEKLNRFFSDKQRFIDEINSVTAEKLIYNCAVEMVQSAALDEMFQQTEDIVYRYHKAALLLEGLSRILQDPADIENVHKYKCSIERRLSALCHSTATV
Kind of assay: Kinase profiling ULK2. As to conditions: for remaining activity at 100 µM: read-out: residual kinase activity, ULK2.
Text: as §1

The mark [1] stands for this setting: 100 micromolar inhibitor concentration, 100 is no change.
The mark [2] stands for this setting: 100 micromolar inhibitor, 100 = no change.

WNK1, sequence (Q9H4A3 whole entry, species assumed): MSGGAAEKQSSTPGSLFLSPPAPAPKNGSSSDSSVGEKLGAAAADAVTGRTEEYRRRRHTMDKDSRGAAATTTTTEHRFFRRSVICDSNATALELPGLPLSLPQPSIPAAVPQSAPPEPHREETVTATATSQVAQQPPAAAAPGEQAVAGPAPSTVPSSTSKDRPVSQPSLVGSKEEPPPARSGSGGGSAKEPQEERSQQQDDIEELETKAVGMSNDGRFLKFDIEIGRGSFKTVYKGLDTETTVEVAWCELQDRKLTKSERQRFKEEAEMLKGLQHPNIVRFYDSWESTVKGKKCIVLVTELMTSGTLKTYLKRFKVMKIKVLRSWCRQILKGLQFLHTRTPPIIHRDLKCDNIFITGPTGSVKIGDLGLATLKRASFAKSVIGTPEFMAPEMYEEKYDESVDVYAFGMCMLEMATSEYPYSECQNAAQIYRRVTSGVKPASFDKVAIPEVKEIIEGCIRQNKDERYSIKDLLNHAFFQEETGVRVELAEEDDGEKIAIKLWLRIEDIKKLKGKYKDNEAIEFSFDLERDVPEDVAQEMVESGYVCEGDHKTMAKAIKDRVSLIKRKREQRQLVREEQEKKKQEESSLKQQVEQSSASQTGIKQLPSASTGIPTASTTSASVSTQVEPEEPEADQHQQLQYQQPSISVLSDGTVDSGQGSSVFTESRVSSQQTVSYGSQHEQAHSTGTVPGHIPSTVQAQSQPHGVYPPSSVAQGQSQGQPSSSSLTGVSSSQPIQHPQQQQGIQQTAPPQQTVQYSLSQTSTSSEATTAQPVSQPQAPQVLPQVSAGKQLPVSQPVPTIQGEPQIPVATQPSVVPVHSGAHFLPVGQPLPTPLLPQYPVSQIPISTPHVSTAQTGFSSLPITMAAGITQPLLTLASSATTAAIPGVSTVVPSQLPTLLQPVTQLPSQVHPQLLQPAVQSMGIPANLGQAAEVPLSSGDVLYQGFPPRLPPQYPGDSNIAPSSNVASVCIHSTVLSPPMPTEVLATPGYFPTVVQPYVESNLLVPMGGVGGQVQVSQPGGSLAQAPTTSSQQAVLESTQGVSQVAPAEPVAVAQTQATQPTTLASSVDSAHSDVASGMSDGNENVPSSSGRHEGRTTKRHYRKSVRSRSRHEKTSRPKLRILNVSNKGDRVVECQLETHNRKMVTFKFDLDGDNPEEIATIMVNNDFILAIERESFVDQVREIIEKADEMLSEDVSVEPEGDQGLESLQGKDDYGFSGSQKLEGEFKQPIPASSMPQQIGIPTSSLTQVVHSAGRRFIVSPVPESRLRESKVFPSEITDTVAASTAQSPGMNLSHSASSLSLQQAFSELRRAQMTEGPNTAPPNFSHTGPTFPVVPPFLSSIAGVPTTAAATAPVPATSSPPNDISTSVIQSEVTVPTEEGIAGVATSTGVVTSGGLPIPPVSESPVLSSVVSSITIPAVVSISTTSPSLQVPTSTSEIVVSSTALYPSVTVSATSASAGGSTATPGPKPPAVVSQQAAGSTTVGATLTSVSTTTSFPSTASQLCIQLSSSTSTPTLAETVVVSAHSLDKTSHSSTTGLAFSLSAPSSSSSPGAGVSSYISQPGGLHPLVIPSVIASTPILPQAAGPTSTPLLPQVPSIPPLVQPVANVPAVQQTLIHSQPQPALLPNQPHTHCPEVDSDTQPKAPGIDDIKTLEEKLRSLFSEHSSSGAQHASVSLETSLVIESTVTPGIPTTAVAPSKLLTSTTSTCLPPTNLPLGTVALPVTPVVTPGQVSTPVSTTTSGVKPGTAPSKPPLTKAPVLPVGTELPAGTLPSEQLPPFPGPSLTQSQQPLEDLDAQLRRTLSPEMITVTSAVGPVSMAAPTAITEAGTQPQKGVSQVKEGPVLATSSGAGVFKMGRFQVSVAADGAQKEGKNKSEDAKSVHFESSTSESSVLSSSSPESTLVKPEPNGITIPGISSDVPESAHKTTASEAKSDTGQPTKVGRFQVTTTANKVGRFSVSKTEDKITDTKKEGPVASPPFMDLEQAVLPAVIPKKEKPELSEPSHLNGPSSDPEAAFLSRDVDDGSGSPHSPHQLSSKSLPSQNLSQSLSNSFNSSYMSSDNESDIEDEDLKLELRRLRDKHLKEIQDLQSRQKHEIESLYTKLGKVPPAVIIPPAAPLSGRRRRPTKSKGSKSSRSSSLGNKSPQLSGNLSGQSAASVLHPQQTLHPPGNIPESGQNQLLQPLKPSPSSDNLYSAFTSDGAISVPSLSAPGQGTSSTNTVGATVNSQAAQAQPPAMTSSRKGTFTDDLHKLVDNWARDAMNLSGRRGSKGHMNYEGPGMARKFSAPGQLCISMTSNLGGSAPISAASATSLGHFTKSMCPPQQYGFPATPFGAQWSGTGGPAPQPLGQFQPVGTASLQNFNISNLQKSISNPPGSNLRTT
BRK, sequence (Q13882 whole entry, species assumed): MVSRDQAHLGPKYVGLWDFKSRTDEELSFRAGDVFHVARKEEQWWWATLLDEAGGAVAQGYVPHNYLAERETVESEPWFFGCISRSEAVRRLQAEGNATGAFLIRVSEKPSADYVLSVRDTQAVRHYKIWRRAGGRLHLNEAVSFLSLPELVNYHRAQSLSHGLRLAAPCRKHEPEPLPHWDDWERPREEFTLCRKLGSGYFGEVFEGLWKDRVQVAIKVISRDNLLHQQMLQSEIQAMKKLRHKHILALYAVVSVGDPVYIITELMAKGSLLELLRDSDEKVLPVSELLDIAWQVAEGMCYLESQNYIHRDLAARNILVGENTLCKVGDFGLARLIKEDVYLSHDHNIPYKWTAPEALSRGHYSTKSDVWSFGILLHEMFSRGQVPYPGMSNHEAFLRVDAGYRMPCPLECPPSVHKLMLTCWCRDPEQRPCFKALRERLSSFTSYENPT
MST3, sequence (Q9Y6E0 whole entry, species assumed): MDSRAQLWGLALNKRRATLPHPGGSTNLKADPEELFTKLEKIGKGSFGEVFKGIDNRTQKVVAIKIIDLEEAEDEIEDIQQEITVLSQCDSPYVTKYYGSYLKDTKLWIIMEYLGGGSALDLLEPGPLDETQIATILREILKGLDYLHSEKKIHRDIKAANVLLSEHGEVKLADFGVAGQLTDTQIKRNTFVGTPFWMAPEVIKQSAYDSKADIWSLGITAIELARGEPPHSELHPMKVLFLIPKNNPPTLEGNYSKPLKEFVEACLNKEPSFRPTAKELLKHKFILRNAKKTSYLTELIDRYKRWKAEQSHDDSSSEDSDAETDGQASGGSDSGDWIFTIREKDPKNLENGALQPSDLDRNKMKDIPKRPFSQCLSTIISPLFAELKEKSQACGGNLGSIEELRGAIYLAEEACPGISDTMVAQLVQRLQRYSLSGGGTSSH

Take `CC(=O)Nc1nc2cc(O)ccc2s1` [Compound 01-66, N-(5-hydroxybenzo[d]thiazol-2-yl)acetamide]: the remaining activity at 100 µM at CDK2-Cyclin A was 71%; on MST3, 79%; at WNK1, 101%; on NUAK1 it was 44%; at BRK, 77%; on IKKb, 62%.
With `CC(=O)Nc1nc2ccc(O)cc2s1` [Compound 01-71], the remaining activity at 100 µM came to 30% on CDK2-Cyclin A (setting [1]); 66% on MST3 (setting [1]); 96% at WNK1 (setting [1]); 26% at NUAK1 (setting [1]); 22% on BRK (setting [1]); 63% at IKKb (setting [1]).
Turning to `CC(=O)Nc1nc2ccc(C(F)(F)F)cc2s1` [Compound 01-90], the remaining activity at 100 µM at CDK2-Cyclin A (setting [1]) turned out to be 22%; on MST3 (setting [1]), 85%; on WNK1 (setting [1]), 100%; at NUAK1 (setting [1]) it was 66%; on BRK (setting [1]) it was 99%; on IKKb (setting [1]), 75%. Further, at ULK2 (setting [1]), the remaining activity at 100 µM worked out at 78%.
In the case of `CC(=O)Nc1nc2ccc(C#N)cc2s1` [Compound 01-94], the remaining activity at 100 µM amounted to 11% on CDK2-Cyclin A (setting [1]); 71% at MST3 (setting [1]); 101% on WNK1 (setting [1]); 46% on NUAK1 (setting [1]); 100% at BRK (setting [1]); 58% on IKKb (setting [1]). For the same compound, the remaining activity at 100 µM at ULK2 (setting [1]) turned out to be 68%.
As to `CC(=O)Nc1cccc(NC(=O)c2nc3ccc(O)cc3s2)c1` [Compound 03-07, N-(3-acetamidophenyl)-6-hydroxybenzo[d]thiazole-2-carboxamide], the remaining activity at 100 µM at CDK2-Cyclin A (setting [2]) amounted to 99%; at MST3 (setting [2]) it was 85%; on WNK1 (setting [2]) it was 115%; at NUAK1 (setting [2]) it was 37%; on BRK (setting [2]) it was 80%; on IKKb (setting [2]) it was 88%. Further, on ULK2 (setting [2]), the remaining activity at 100 µM stood at 81%.
As for `O=C(Nc1nc2cc(O)ccc2s1)c1ccncc1` [Compound 03-11], at CDK2-Cyclin A (setting [1]), the “residual kinase activity, CDK2-Cyclin A” value was determined as 98. Also, at MST3 (setting [1]), the “residual kinase activity, MST3” value was 92. Further, the “residual kinase activity, WNK1” value at WNK1 (setting [1]) was found to be 88. Moreover, the “residual kinase activity, NUAK1” value on NUAK1 (setting [1]) is 86. The “residual kinase activity, BRK” value at BRK (setting [1]) is listed as 93. The “residual kinase activity, IKKb” value on IKKb (setting [1]) turned out to be 80. Also, the “residual kinase activity, ULK2” value at ULK2 (setting [1]) came out at 86.
Take `O=C(Nc1nc2ccc(O)cc2s1)c1ccccn1` [Compound 03-12]: on CDK2-Cyclin A (setting [1]), the “residual kinase activity, CDK2-Cyclin A” value amounted to 87. Besides, the “residual kinase activity, MST3” value on MST3 (setting [1]) was found to be 85. Besides, the “residual kinase activity, WNK1” value on WNK1 (setting [1]) is on record as 91. In addition, at NUAK1 (setting [1]), the “residual kinase activity, NUAK1” value was 52. Also, the “residual kinase activity, BRK” value at BRK (setting [1]) was 61. The “residual kinase activity, IKKb” value on IKKb (setting [1]) was found to be 84. At ULK2 (setting [1]), the “residual kinase activity, ULK2” value is 87.
As to `O=C(Nc1nc2cc(O)ccc2s1)c1ccccn1` [Compound 03-13], the “residual kinase activity, CDK2-Cyclin A” value on CDK2-Cyclin A (setting [1]) came to 91. Also, the “residual kinase activity, MST3” value at MST3 (setting [1]) amounted to 78. The “residual kinase activity, WNK1” value at WNK1 (setting [1]) is listed as 100. Further, the “residual kinase activity, NUAK1” value on NUAK1 (setting [1]) is 64. Moreover, on BRK (setting [1]), the “residual kinase activity, BRK” value amounted to 94. In addition, the “residual kinase activity, IKKb” value on IKKb (setting [1]) was found to be 88. For the same compound, the “residual kinase activity, ULK2” value at ULK2 (setting [1]) was determined as 56.
For `COc1ccc2sc(NC(C)=O)nc2c1` [Compound 03-21], the remaining activity at 100 µM at CDK2-Cyclin A (setting [1]) came to 93%; at MST3 (setting [1]), 91%; on WNK1 (setting [1]), 121%; at NUAK1 (setting [1]), 84%; at BRK (setting [1]), 62%; on IKKb (setting [1]), 98%. Moreover, the remaining activity at 100 µM on ULK2 (setting [1]) was determined as 86%.
